This is an account of results in patent US9416141B2 (University of Washington through its Center for …, priority 2012, dated 2016).

This test deals with hair cells. Briefly: Hair cell toxicity assay in zebrafish (neomycin-induced hair cell death, DASPEI staining of neuromasts). It is filed as in vivo. Particulars: for Emax at 25 µM: maximum observed @ 25 μM test compound; for EC50: zebrafish larvae 5-7 dpf, 1 h pre-treatment, then 200 micromolar neomycin + test compound 30 min, read-out: HC50 (concentration that would produce 50% hair cell survival); for Emax at 2.8 µM: maximum observed @ 2.8 μM test compound; for Emax at 8.3 µM: maximum observed @ 8.3 μM test compound. On the procedure: Zebrafish are bred and newly fertilized embryos are collected the week prior and raised at 28.5° C. in petri dishes containing embryo medium. Newly hatched free-swimming larvae are fed paramecium and dry fish food at 4 days post fertilization (dpf) with lights on. For treatment, fish 5-7 dpf are transferred to cell culture baskets and place within a well of a 6-well plate containing 7 milliliters of 1× embryo medium. Typically, tests are done with ten fish per basket but work well with up to 50 fish. All treatment and wash volumes are 7 milliliters. • 1. Fish are pre-treated with test compound for 1 hour. […] Treat with 200 micromolar neomycin (neomycin sulfate, Sigma, St. Louis, Mo., catalog #N1142)+test compound for 30 minutes. • 3. Rinse fish briefly 4 times in embryo medium and add 700 μl of 0.05% DASPEI (2-{4-(dimethylamino)styryl}-N-ethylpyridinium iodide, Molecular Probes, Eugene, Oreg.) and allowed to stain for 15 minutes. • 4. Rinse twice in embryo medium and add 350 μl MS222 (0.55 ug/ml final concentration, 3-aminobenzoic acid ethyl ester, methansulfoneate salt, Sigma, St. Louis, Mo.) to anesthetize. • 5. View with epifluorescence dissecting microscope equipped with a DAPSEI filter set (excitation […], Chroma Technologies, Brattleboro, Vt.). For assessment of initial dose response curves, fish are transferred to wide depression slide with wide-bore pipette. The DASPEI staining of ten neuromasts (SO1, SO2, IO1, IO2, IO3, IO4, M2, MI1, MI2 and O2) on one side of an animal are evaluated. Each neuromast is scored for presence of DASPEI staining (score=2), reduced DASPEI staining (score=1) or absence of DASPEI staining (score=0). Total scores for an animal are tabulated, to give a composite score that can range from 0 to 20. Average scores and standard deviations are calculated for animals in each treatment group. Scores are normalized to control group (vehicle only, no drug, no neomycin) and expressed as % hair cell survival. HCmax is the maximum protection (hair cell survival) observed. • 6. If at least 50% hair cells survive, the HC50 (concentration that would produce 50% hair cell survival) is calculated as a linear extrapolation from the nearest concentrations of protective drug that produce hair cell survival below and above 50%. If less than 50% hair cells survive, the HC50 is not determined. 1× embryo media (standard lab EM): • 1 mM MgSO4, • 0.15 mM KH2PO4, • 0.05 mM Na2HPO4, • 1 mM CaCl2, • 0.5 mM KCl • 15 mM NaCl • 0.7 mM NaHCO3

The mark [1] stands for this setting: Danio rerio, 200 micromolar neomycin, read-out: Max HC Protection (HCmax, % hair cell survival).

Structures can show the parent of a compound that is named as a salt. Where two headings read alike, the source gives them in different places.

For `C[N+]12CCCCC1c1sc(NC(=O)Nc3ccc(Cl)cc3)c(C(N)=O)c1CC2` (racemic) [Example 178, (+/−)-3-Carbamoyl-2-[3-(4-chlorophenyl)ureido]-6-methyl-4,5,6,7,8,9,10,10a-octahydrothieno[2,3-a]quinolizin-6-ium chloride], the Emax at 25 µM under setting [1] was 102%. Also, the EC50 (Danio rerio) lay within 1000 to 10000 nM.

In the case of `C[N+]1(C)CCCC12CCc1c(sc(NC(=O)Nc3ccc(Cl)cc3)c1C(N)=O)C2` (racemic) [Example 186, (+/−)-3-Carbamoyl-2-[3-(4-chlorophenyl)ureido]-1′,1′-dimethyl-5,7-dihydro-4H-spiro(benzo[b]thiophene-6,2′-pyrrolidin)-1′-ium trifluoroacetate], the Emax at 2.8 µM under setting [1] worked out at 65%. Moreover, the EC50 (Danio rerio) is < 1000 nM.

As for `CC[N+]1(C)C2CCC1c1sc(NC(=O)Nc3ccc(Cl)cc3)c(C(N)=O)c1C2` (racemic) [Example 187, (+/−)-3-Carbamoyl-2-[3-(4-chlorophenyl)ureido]-9-ethyl-9-methyl-5,6,7,8-tetrahydro-4H-thienocyclohepten-5,8-iminium chloride], under setting [1], the Emax at 25 µM is 72%. Moreover, where the note is “Danio rerio”, the EC50 lay within 1000 to 10000 nM.

In the case of `C[N+]1(C)C2CCC1c1sc(NC(=O)Nc3ccc(Cl)cc3)c(C(N)=O)c1C2` (racemic) [Example 188, (+/−)-3-Carbamoyl-2-[3-(4-chlorophenyl)ureido]-9,9-dimethyl-5,6,7,8-tetrahydro-4H-thienocyclohepten-5,8-iminium iodide], under setting [1], the Emax at 25 µM stood at 59%. Besides, the EC50 (Danio rerio) is 1000 to 10000 nM.

Turning to `C[N+]1(CC2CCC2)C2CCC1c1sc(NC(=O)Nc3ccc(Cl)cc3)c(C(N)=O)c1C2` (racemic) [Example 189, (+/−)-3-Carbamoyl-2-[3-(4-chlorophenyl)ureido]-9-(cyclobutylmethyl)-9-methyl-5,6,7,8-tetrahydro-4H-thienocyclohepten-5,8-iminium trifluoroacetate], the Emax at 25 µM under setting [1] came to 96%. Moreover, the EC50 (Danio rerio) fell in the range of 1000 to 10000 nM.

On to `CC(C1CCC1)[N+]1(C)CCc2c(sc(NC(=O)Nc3ccc(Cl)cc3)c2C(N)=O)C1` (racemic) [Example 203, (+/−)-3-Carbamoyl-2-[3-(4-chlorophenyl)ureido]-6-(1-cyclobutylethyl)-6-methyl-4,5,6,7-tetrahydrothieno[2,3-c]pyridin-6-ium chloride], for which the Emax at 2.8 µM under setting [1] worked out at 75%. In addition, the EC50 (Danio rerio) is < 1000 nM.

On to `CC(C)C(C)[N+]1(C)CCc2c(sc(NC(=O)Nc3ccc(Cl)cc3)c2C(N)=O)C1` (racemic) [Example 204, (+/−)-3-Carbamoyl-2-[3-(4-chlorophenyl)ureido]-6-methyl-6-(3-methylbutan-2-yl)-4,5,6,7-tetrahydrothieno[2,3-c]pyridin-6-ium chloride], for which the Emax at 8.3 µM under setting [1] was 77%.

Take `CON=C1CCc2c(sc(NC(=O)Nc3ccc(Cl)cc3)c2C(N)=O)C1` (single isomer, unassigned) [Example 121, 2-[3-(4-chlorophenyl)ureido]-6-(methoxyimino)-4,5,6,7-tetrahydrobenzo[b]thiophene-3-carboxamide]: the Emax at 3 µM (Danio rerio, maximum observed @ 03 μM test compound, 200 micromolar neomycin, read-out: Max HC Protection (HCmax, % hair cell survival)) turned out to be 6%.

In the case of `CN1C2CCC1c1sc(NC(=O)Nc3ccc(Cl)cc3)c(C(N)=O)c1C2` (single isomer, unassigned; (+)) [Example 128, (+)-2-[3-(4-Chlorophenyl)ureido]-9-methyl-5,6,7,8-tetrahydro-4H-5,8-epiminocyclohepta[b]thiophene-3-carboxamide hydrochloride], under “hydrochloride”, the EC50 is < 1000 nM.

As for `NC(=O)c1c(NC(=O)Nc2ccc(Cl)cc2)sc2c1CC1CCC2N1` (single isomer, unassigned; (+)) [Example 130, (+)-2-[3-(4-Chlorophenyl)ureido]-5,6,7,8-tetrahydro-4H-5,8-epiminocyclohepta[b]thiophene-3-carboxamide hydrochloride], under setting [1], the Emax at 2.8 µM came out at 40%.

Turning to `CN1C2CCC1c1sc(NC(=O)Nc3ccc(Cl)cc3)c(C(N)=O)c1C2` (single isomer, unassigned; (-)) [Example 127, (−)-2-[3-(4-chlorophenyl)ureido]-9-methyl-5,6,7,8-tetrahydro-4H-5,8-epiminocyclohepta[b]thiophene-3-carboxamide hydrochloride], the EC50 (Danio rerio) is 1000 to 10000 nM.

On to `NC(=O)c1c(NC(=O)Nc2ccc(Cl)cc2)sc2c1CC1CCC2N1` (single isomer, unassigned; (-)) [Example 129, (−)-2-[3-(4-Chlorophenyl)ureido]-5,6,7,8-tetrahydro-4H-5,8-epiminocyclohepta[b]thiophene-3-carboxamide hydrochloride], for which, under setting [1], the Emax at 2.8 µM turned out to be 81%. Further, for the setting “Danio rerio”, the EC50 was < 1000 nM.

With `NC(=O)c1c(NC(=O)Nc2ccc(Cl)cc2)sc2c1CCN(CC1CC1)C2` [Example 1, 2-[3-(4-chlorophenyl)ureido]-6-(cyclopropylmethyl)-4,5,6,7-tetrahydrothieno[2,3-c]pyridine-3-carboxamide hydrochloride], the Emax at 25 µM under setting [1] amounted to 92%. The EC50 (Danio rerio) fell in the range of 1000 to 10000 nM.

As for `CC(C)N1CCc2c(sc(NC(=O)Nc3ccc(Cl)cc3)c2C(N)=O)C1` [Example 2, 2-[3-(4-Chlorophenyl)ureido]-6-isopropyl-4,5,6,7-tetrahydrothieno[2,3-c]pyridine-3-carboxamide hydrochloride], the Emax at 25 µM under setting [1] was 84%. For the same compound, the EC50 (Danio rerio) fell in the range of 1000 to 10000 nM.

Turning to `COCCCN1CCc2c(sc(NC(=O)Nc3ccc(Cl)cc3)c2C(N)=O)C1` [Example 3, 2-[3-(4-Chlorophenyl)ureido]-6-(3-methoxypropyl)-4,5,6,7-tetrahydrothieno[2,3-c]pyridine-3-carboxamide hydrochloride], the Emax at 25 µM under setting [1] came to 76%. In addition, the EC50 (Danio rerio) lay within 1000 to 10000 nM.

For the compound `CC(C)(C)OC(=O)N1CCC(N2CCc3c(sc(NC(=O)Nc4ccc(Cl)cc4)c3C(N)=O)C2)C1` (stereo not shown) [Example 4, tert-Butyl 3-{3-carbamoyl-2-[3-(4-chlorophenyl)ureido]-4,5-dihydrothieno[2,3-c]pyridin-6(7H)-yl}pyrrolidine-1-carboxylate], under setting [1], the Emax at 8.3 µM was 56%. Besides, the EC50 (Danio rerio) was 1000 to 10000 nM.

As for `NC(=O)c1c(NC(=O)Nc2ccc(Cl)cc2)sc2c1CCN(C1CCOCC1)C2` [Example 5, 2-[3-(4-Chlorophenyl)ureido]-6-(tetrahydro-2H-pyran-4-yl)-4,5,6,7-tetrahydrothieno[2,3-c]pyridine-3-carboxamide hydrochloride], under setting [1], the Emax at 8.3 µM is 89%. Also, the EC50 (Danio rerio) lay within 1000 to 10000 nM.

Consider `NC(=O)c1c(NC(=O)Nc2ccc(Cl)cc2)sc2c1CCN(C1COC1)C2` [Example 6, 2-[3-(4-Chlorophenyl)ureido]-6-(oxetan-3-yl)-4,5,6,7-tetrahydrothieno[2,3-c]pyridine-3-carboxamide hydrochloride], for which the Emax at 25 µM under setting [1] turned out to be 72%. For the same compound, for the setting “Danio rerio”, the EC50 was in the range of 1000 to 10000 nM.

As for `CN1CCC(N2CCc3c(sc(NC(=O)Nc4ccc(Cl)cc4)c3C(N)=O)C2)CC1` [Example 8, 2-[3-(4-Chlorophenyl)ureido]-6-(1-methylpiperidin-4-yl)-4,5,6,7-tetrahydrothieno[2,3-c]pyridine-3-carboxamide dihydrochloride], under setting [1], the Emax at 25 µM amounted to 84%. Also, where the note is “Danio rerio”, the EC50 is > 10000 nM.

For the compound `CC(C)(C)OC(=O)NCCN1CCc2c(sc(NC(=O)Nc3ccc(Cl)cc3)c2C(N)=O)C1` [Example 10, tert-Butyl 2-{3-carbamoyl-2-[3-(4-chlorophenyl)ureido]-4,5-dihydrothieno[2,3-c]pyridin-6(7H)-yl}ethylcarbamate], under setting [1], the Emax at 8.3 µM turned out to be 13%.
